Source: patent US6127379A, “Benzopyran, benzothiopyran and benzofuran derivatives as 5-HT4 antagonists” (SmithKline Beecham p.l.c., priority 1994, dated 2000)
Where a name gives a salt, the structure may show the parent alone.

Assays:
[1] = target: T1, 5-HT4 receptor (Cavia porcellus, UniProt O70528); test: Guinea pig colon longitudinal muscle-myenteric plexus, 5-HT-evoked contraction; assay type: cell-based; settings: guinea pig distal colon
T1 construct: guinea pig distal colon longitudinal muscle-myenteric plexus, 5-HT-evoked contraction
T1 sequence (O70528 whole entry): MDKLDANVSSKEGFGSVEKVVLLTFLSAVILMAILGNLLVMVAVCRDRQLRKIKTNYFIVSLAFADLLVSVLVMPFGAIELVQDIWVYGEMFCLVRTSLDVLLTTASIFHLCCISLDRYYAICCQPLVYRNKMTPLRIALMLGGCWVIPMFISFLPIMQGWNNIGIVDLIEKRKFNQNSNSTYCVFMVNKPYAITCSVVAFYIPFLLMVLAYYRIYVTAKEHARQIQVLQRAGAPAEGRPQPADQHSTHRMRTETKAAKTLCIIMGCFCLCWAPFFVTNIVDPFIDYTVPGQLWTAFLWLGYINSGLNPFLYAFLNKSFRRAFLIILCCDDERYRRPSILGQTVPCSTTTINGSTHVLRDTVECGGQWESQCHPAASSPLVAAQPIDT
Description: (§1) 5-HT4 RECEPTOR ANTAGONIST ACTIVITY
Male guinea-pigs, weighing 250-400g are used. Longitudinal muscle-myentericplexus preparations, approximately 3 cm long, are obtained from the distal colon region. These are suspended under a 0.5 g load in isolated tissue baths containing Krebs solution bubbled with 5%, CO2 in O2 and maintained at 37° C. In all experiments, the Krebs solution also contains methiothepin 10^-7 M and granisetron 10^-6 M to block effects at 5-HT1, 5-HT2 and 5-HT3 receptors.
After construction of a simple concentration-response curve with 5-HT, using 30 s contact times and a 15 min dosing cycle, a concentration of 5-HT is selected so as to obtain a contraction of the muscle approximately 40-70% maximum(10^-9 M approx). The tissue is then alternately dosed every 15 min with this concentration of 5-HT and then with an approximately equi-effective concentration of the nicotine receptor stimulant, dimethylphenylpiperazinium (DMPP). After obtaining consistent responses to both 5-HT and DMPP, increasing concentrations of a putative 5-HT4 receptor antagonist are then added to the bathing solution. The effects of this compound are then determined as a percentage reduction of the contractions evoked by 5-HT or by DMPP. […] A compound which reduces the response to 5-HT but not to DMPP is believed to act as a 5-HT4 receptor antagonist.

[2] = target: 5-HT4 receptor (Sus scrofa, UniProt Q6Q253); test: Piglet atria spontaneous beating screen; assay type: cell-based; settings: piglet spontaneously beating atria
5-HT4 receptor (Sus scrofa, UniProt Q6Q253), sequence (Q6Q253 1-402): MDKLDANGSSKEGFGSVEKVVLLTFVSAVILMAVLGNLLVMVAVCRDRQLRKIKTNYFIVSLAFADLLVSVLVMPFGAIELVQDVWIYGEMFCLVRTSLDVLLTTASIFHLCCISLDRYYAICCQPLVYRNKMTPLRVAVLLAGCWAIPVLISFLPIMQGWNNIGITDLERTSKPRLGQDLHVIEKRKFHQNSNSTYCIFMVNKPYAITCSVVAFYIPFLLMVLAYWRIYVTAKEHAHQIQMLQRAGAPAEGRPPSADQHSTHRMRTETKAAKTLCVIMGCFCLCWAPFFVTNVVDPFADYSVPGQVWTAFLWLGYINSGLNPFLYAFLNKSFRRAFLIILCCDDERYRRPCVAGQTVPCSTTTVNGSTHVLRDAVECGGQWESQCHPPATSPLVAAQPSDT
Description: as §1
Compounds were tested in the piglet spontaneous beating screen (Naunyn-Schmiedeberg's Arch. Pharmacol 342, 619-622). pKB (-log10 KB) value for the compound of Examples 3 and 7 were 9.8 and 7.7 respectively.

[3] = system: 5-HT4 receptor; test: 5-HT-induced motility in dog gastric pouch; assay type: in vivo; settings: dose of 10 μg kg^-1
Description: as §1
4) 5-HT-induced motility in dog gastric pouch
Compounds are tested in the in vivo method described in "Stimulation of canine motility by BRL 24924, a new gastric prokinetic agent", Bermudez et al, J. Gastrointestinal Motility, 2(4), 281-286.

SMILES | 5-HT4 receptor antagonist activity (in words) [1] | pKB (-log10 KB) [2] | inhibition of 5-HT-induced motility [3]
CCCCN1CCC(COC(=O)c2cc(Cl)cc3c2OCCC3)CC1 [Example E3, (1-Butyl-4-piperidyl)methyl-6-chloro-[2H]-3,4-dihydro-1-benzopyran-8-carboxylate] | particularly good activity | 9.8 | showed inhibition
O=C(OCCN1CCCCC1)c1cc(Cl)cc2c1OCCC2 [Example E7, (1-Piperidyl)ethyl-6-chloro-[2H]-3,4-dihydro-1-benzopyran-8-carboxylate hydrochloride] |  | 7.7 | 
CCCCN1CCC(CNC(=O)c2cc(Cl)cc3c2OCCC3)CC1 [Example E8, (1-Butyl-4-piperidyl)methyl-6-chloro-[2H]-3,4-dihydro-1-benzopyran-8-carboxamide hydrochloride] | particularly good activity |  | 
CCCCN1CCC(CNC(=O)c2cc(Cl)c(N)c3c2OCCC3)CC1 [Example E12, 5-Amino-(1-butyl-4-piperidyl)methyl-6-chloro-[2H]-3,4-dihydro-1-benzopyran-8-carboxamide] | particularly good activity |  | 
